Source: patent US20100297256A1, “METHODS AND COMPOSITIONS FOR INHIBITING INTEGRINS USING TELLURIUM-CONTAINING COMPOUNDS” (priority 2007, published 2010)

Experiments:
West Nile Virus (WNV) [1] = test: WNV plaque assay; assay type: cell-based; details: Vero cells, added 1 hour before inoculation
Protocol: Vero cells were seeded at a density of 1×10^6 cells in 10 cm dishes 20 hours prior to infection. WNV (5×10^3 PFU/ml, MOI=0.005 PFU/cell) was added to the cultures, and the plates were incubated for 1 hour at 37° C. with 5% CO2. After incubation, the medium was removed and the cells were washed 6 times with PBS and overlaid with fresh EMEM medium containing 4% FCS (fetal calf serum) and 1% (w/v) agar. Cells were then incubated at 37° C. with 5% CO2 for 3 days until plaques appeared, and then fixed and stained with a solution of 0.5% crystal violet in a mixture of formalin (1% v/v) and ethanol (1.65% v/v). Plaques were counted over a light box after removal of the agar overlay.

αVβ3 integrin = test: Anti-αVβ3 integrin antibody binding assay; assay type: cell-based
Protocol: An anti-αVβ3 integrin mediated cell adhesion kit (Millipore [Chemicon], Temecula, Calif.) was used to determine cells attachment to anti-αVβ3 integrin antibody, in the presence or absence of AS101. Briefly, Vero or BGM cells were mixed with PBS or with AS101 (1-10 μg/ml) and were added to anti-αVβ3 integrin coated 96-well plates, and to a control 96-well plate (containing anti-mouse IgG) in triplicate. The plates were incubated at 37° C., 5% CO2, for 2 hours, and the cells were then stained and extracted according to the kit instructions, using the staining solution and extraction buffer supplied with the kit. Cell concentration was measured by a spectrophotometer at 540 nm.

West Nile Virus (WNV) [2] = test: Western blot analysis of WNV protein synthesis (WNV-E protein); assay type: cell-based; details: Vero cells
Protocol: Vero cells grown in 6-well plates (2×10^5 cells/well) were harvested and total cell extracts were prepared by suspension in 50 μl of ice-cold lysis buffer containing 50 mM Tris (pH 8.0), 150 mM NaCl, 1% NP-40, 0.1% SDS, 5 mM EDTA, 0.2 mM PMSF, 50 mM NaF, […] sodium vanadate, 5 mg/ml aprotinin and 5 mg/ml leupeptin. Cell lysates were boiled for 5 minutes and electrophoresed on 8% SDS-polyacrylamide gel, and were then transferred to a nitrocellulose membrane which was then incubated consecutively with a monoclonal antibody against the WNV envelope (WNV-E) protein and an anti-β-actin or anti-tubulin monoclonal antibody. The Nitrocellulose membranes were developed using horseradish peroxidase-conjugated secondary antibodies and the ECL detection system (Pierce, Rockford, Ill.). Quantitative evaluation of E protein calibrated against tubulin or β-actin was done by scanning and analysis using the Image-J program (www.//rsb.info.nih.gov/ij).

Akt = test: Western blot analysis of Akt; assay type: cell-based, human
Protocol: Phosphorylation of Akt was determined by Western blot analysis.

Bcl2 = test: Western blot analysis of Bcl2; assay type: cell-based, human; details: AS101 added to ARA-C
Text: The expression of the survival factor Bcl2 was examined via Western blot analysis in U937 cells treated with the chemotherapeutic agent ARA-C.

West Nile Virus (WNV) [3] = test: Cell-free virus assay; assay type: cell-based; details: Vero cells, 5 and 10 μg/ml 1 hour before infection, 1 hour after adsorption
Protocol: Cells were plated 20 hours before virus infection in 6-well plates at a density of 2×10^5 cells/plate, and treated with AS101 (1-10 μg/ml) for 1 hour or for 5-10 minutes before WNV infection. The cells were infected at MOI=5 PFU/cell and incubated for 1 hour at 37° C., 5% CO2. Supernatants were collected immediately following the incubation, and the concentration of the virus which remained cell-free in the culture supernatant was measured by viral plaque assay, as described above.

West Nile Virus (WNV) [4] = test: WNV yield assay; assay type: cell-based; details: Vero cells, 5 μg/ml 1 hour before inoculation
Protocol: Vero cells were seeded as described above in 96-well plates. Cells were treated with AS101 and infected with WNV at MOI of 5 PFU/cell. The cells were washed six times with PBS, and fresh medium was added. The virus titer in harvested culture supernatants was determined by a microtitration assay as follows [Colley et al., in Colgan et al., Current Protocols in Immunology, John Wiley & Sons, New York, N.Y., 2003]: 10-fold serial dilutions of supernatants were used to infect Vero cells in 96-well plates. […] Viral titers (expressed as log 10 of TCID50/ml) were calculated according to the Spearman-Karber method [Hierholzer and Killington, in Mahy and Kangro, Virology Methods Manual, Academic Press, San Diego, Calif., 1996].

For `Cl[TeH]1(Cl)(Cl)OCCO1` [AS101, ammonium trichloro(dioxyethylene-O,O′)tellurate], the WNV-induced plaque formation (West Nile Virus (WNV) [1]) was “dose-dependent protective effect against the plaque formation”, the “inhibition of binding of anti-αVβ3 integrin antibody to cells” value (αVβ3 integrin; BGM cells, 10 μg/ml, data not shown) was 64% and the “binding of anti-αVβ3 integrin antibody to cells” value (αVβ3 integrin; Vero cells, 1-10 μg/ml) was “inhibited the binding of anti-αVβ3 integrin antibody to Vero cells in a dose-dependent manner”. For the same compound, the “level of cell-bound WNV-E protein (virus attachment)” value (West Nile Virus (WNV) [2]; 5 μg/ml, 5 and 15 minutes after virus adsorption) was “marked reduced the level of WNV-E protein”, the “inhibition of virus protein (WNV-E) expression vs untreated cells” value (West Nile Virus (WNV) [2]; 2 and 5 μg/ml, 8 hours after infection) was 2-3 fold and the “total amounts of Akt” value (Akt; U937) was “remained unchanged”. For the same compound, the “level of phosphorylated Akt (pAkt)” value (Akt; U937 on fibronectin, dose-dependent) was “reduced the level of phosphorylated Akt”, the “expression of Bcl2” value (Bcl2; U937 on BSA) was “no effect” and the “expression of Bcl2” value (Bcl2; U937 on fibronectin) was “did not decrease expression of Bcl2 in cells plated on fibronectin (FN) unless AS101 was added”. For the same compound, the “WNV infectious units in culture supernatant relative to untreated cells” value (West Nile Virus (WNV) [3]) was “approximately twice”, the “decrease in virus yield” value (West Nile Virus (WNV) [4]; 24 hours post-infection) was 1 log and the “decrease in virus yield” value (West Nile Virus (WNV) [4]; 36 hours post-infection) was 2 log.
